Patent publication US9737517B2, “Pharmaceutical use of hexahydro-dibenzo[a,g]quinolizine compounds” (SHANGHAI INSTITUTE OF MATERIA MEDICA, CHINESE ACADEMY OF …, priority 2013, dated 2017)

molecular target: T1, α1A-AR (Homo sapiens, UniProt P35348); experiment: Calcium mobilization (Fluo-4) antagonism of phenylephrine in HEK293 cells expressing α1A-AR/Gα16; type: cell-based; settings: HEK293 α1A-AR/Gα16, calcium mobilization, phenylephrine 30 nM
T1 construct: expressed in transfected cells; host or cells: HEK293
T1 sequence (P35348 1-466): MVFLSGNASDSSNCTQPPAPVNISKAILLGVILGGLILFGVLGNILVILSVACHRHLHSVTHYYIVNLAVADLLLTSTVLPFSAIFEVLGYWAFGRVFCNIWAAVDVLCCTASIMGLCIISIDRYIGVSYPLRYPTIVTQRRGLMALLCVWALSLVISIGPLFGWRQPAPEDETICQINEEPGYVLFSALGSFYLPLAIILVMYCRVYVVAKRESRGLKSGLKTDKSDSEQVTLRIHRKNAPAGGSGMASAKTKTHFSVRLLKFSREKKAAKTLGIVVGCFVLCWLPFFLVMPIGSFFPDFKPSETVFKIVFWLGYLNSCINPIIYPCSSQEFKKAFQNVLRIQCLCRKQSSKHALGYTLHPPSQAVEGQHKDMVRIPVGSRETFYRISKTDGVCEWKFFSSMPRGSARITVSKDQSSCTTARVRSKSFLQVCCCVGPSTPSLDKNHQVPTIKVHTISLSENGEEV
Method: (§1) HEK293 cells stably expressing α1A-AR/Gα16, α1B-AR/Gα16, α1D-AR/Gα16 were seeded in a 96-well plate, and cultured for 24 hours. Then the medium was removed and 40 μL Hank's balanced salt solution (HBSS: containing 5.4 mM KCl, 0.3 mM Na2HPO4, 0.4 mM KH2PO4, 4.2 mM NaHCO3, 1.3 mM CaCl2, 0.5 mM MgCl2, 0.6 mM MgSO4, 137 mM NaCl, 5.6 mM D-glucose, and 250 μM sulfinpyrazone, pH 7.4) containing 2 μM Fluo-4 AM was added into each well, and incubated at 37° C. for 45 min. Dye was removed and 50 μL of HBSS containing either test compound or 1% DMSO (negative control) was added. After incubation at room temperature for 10 min, Flex Station 3 microplate reader was used to read the value. At specified time points, 25 μL of agonist (phenylephrine, final concentration 30 nM) was dispensed into the well automatically using the reader and fluorescence intensity change of dye caused by intracellular calcium concentration change was detected at an excitation wavelength of 485 nm and an emission wavelength of 525 nm.
(§2) After incubation with different drugs, the reaction rate of cells to 1-AR agonist phenylephrine was calculated as follows: Reaction rate %=(D−B)/(S−B)*100%;
(§3) The reaction rate of the same drug at different doses was tested using GraphPad Prism software by non-linear regression analysis, and the dose-response curve was obtained and IC50 values was measured. Data were obtained from three separate experiments, and each experiment included three duplicate wells.

Row | IC50 [nM] | Compound
1 | 123 | COc1cc2c(cc1OC)CN1CCc3cc(OC)c(OC)cc3C1C2 (stereo not shown) [DC037001]
2 | 502 | COc1cc2c(cc1OC)[C@@H](C)N1CCc3cc(OC)c(OC)cc3[C@@H]1C2 [DC037002]
3 | 91.3 | COc1cc2c(cc1OC)CN1CCc3cc(OC)c(OC)cc3[C@@H]1C2 [DC037003]
4 | 93.9 | COc1ccc2c(c1)CCN1Cc3cc(OC)c(OC)cc3C[C@@H]21 [DC037004]
5 | 160 | COc1cc2c(cc1OC)[C@@H]1Cc3cc4c(cc3CN1CC2)OCO4 [DC037005]
6 | 969 | COc1ccc(OC)c2c1C[C@H]1c3cc4c(cc3CCN1C2)OCO4 [DC037007]
7 | 552 | COc1cc2c(cc1OC)C1Cc3cc4c(cc3CN1CC2)OCO4 (stereo not shown) [DC037008]

same assay, conditions: ratio of cell IC50 values, calcium mobilization

Row | α1B/α1A | Compound
8 | 1.4 | COc1cc2c(cc1OC)CN1CCc3cc(OC)c(OC)cc3C1C2 (stereo not shown) [DC037001]
9 | 34.2 | COc1cc2c(cc1OC)[C@@H](C)N1CCc3cc(OC)c(OC)cc3[C@@H]1C2 [DC037002]
10 | 2731 | COc1cc2c(cc1OC)CN1CCc3cc(OC)c(OC)cc3[C@@H]1C2 [DC037003]
11 | 2.0 | COc1ccc2c(c1)CCN1Cc3cc(OC)c(OC)cc3C[C@@H]21 [DC037004]
12 | 10.3 | COc1cc2c(cc1OC)[C@@H]1Cc3cc4c(cc3CN1CC2)OCO4 [DC037005]
13 | 13.4 | COc1ccc(OC)c2c1C[C@H]1c3cc4c(cc3CCN1C2)OCO4 [DC037007]
14 | 125 | COc1cc2c(cc1OC)C1Cc3cc4c(cc3CN1CC2)OCO4 (stereo not shown) [DC037008]

molecular target: T2, α1B-AR (Homo sapiens, UniProt P35368); experiment: Calcium mobilization (Fluo-4) antagonism of phenylephrine in HEK293 cells expressing α1B-AR/Gα16; type: cell-based; settings: phenylephrine 30 nM
T2 construct: expressed in transfected cells; host or cells: HEK293
T2 sequence (P35368 1-520): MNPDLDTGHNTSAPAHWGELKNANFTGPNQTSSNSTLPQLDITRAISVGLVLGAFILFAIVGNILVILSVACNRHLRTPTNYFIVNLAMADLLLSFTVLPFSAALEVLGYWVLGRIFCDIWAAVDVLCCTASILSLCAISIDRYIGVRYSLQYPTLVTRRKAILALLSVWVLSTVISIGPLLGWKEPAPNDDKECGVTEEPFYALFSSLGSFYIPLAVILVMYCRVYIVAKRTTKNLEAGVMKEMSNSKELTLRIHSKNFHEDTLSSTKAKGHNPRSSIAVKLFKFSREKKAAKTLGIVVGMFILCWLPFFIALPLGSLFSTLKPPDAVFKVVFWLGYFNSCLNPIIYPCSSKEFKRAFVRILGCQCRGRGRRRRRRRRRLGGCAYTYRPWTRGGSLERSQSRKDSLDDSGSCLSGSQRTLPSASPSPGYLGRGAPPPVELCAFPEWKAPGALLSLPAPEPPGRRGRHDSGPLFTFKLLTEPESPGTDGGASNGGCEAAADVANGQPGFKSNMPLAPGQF
Method: as §1, §2, §3

Row | IC50 [nM] | Compound
15 | 174 | COc1cc2c(cc1OC)CN1CCc3cc(OC)c(OC)cc3C1C2 (stereo not shown) [DC037001]
16 | 17200 | COc1cc2c(cc1OC)[C@@H](C)N1CCc3cc(OC)c(OC)cc3[C@@H]1C2 [DC037002]
17 | 249000 | COc1cc2c(cc1OC)CN1CCc3cc(OC)c(OC)cc3[C@@H]1C2 [DC037003]
18 | 189 | COc1ccc2c(c1)CCN1Cc3cc(OC)c(OC)cc3C[C@@H]21 [DC037004]
19 | 1650 | COc1cc2c(cc1OC)[C@@H]1Cc3cc4c(cc3CN1CC2)OCO4 [DC037005]
20 | 13000 | COc1ccc(OC)c2c1C[C@H]1c3cc4c(cc3CCN1C2)OCO4 [DC037007]
21 | 68800 | COc1cc2c(cc1OC)C1Cc3cc4c(cc3CN1CC2)OCO4 (stereo not shown) [DC037008]

molecular target: T3, α1D-AR (Homo sapiens, UniProt P25100); experiment: Calcium mobilization (Fluo-4) antagonism of phenylephrine in HEK293 cells expressing α1D-AR/Gα16; type: cell-based; settings: phenylephrine 30 nM
T3 construct: expressed in transfected cells; host or cells: HEK293
T3 sequence (P25100 1-572): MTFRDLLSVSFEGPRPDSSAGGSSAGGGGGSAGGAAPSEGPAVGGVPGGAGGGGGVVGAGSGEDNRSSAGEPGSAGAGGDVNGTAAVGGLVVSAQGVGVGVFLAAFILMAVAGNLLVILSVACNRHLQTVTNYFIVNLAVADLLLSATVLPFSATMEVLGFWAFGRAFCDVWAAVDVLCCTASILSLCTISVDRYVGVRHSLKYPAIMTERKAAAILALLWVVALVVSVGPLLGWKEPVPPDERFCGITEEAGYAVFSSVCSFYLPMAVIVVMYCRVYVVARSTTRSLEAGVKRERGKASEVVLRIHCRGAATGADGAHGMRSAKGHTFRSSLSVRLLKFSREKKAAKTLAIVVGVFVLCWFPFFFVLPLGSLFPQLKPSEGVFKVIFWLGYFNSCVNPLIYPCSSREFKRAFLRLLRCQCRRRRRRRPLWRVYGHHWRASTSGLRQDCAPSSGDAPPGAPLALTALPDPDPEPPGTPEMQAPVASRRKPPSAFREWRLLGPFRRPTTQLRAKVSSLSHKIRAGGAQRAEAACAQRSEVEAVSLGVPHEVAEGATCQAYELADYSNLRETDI
Method: as §1, §2, §3

Row | IC50 [nM] | Compound
22 | 8710 | COc1cc2c(cc1OC)CN1CCc3cc(OC)c(OC)cc3C1C2 (stereo not shown) [DC037001]
23 | 2520 | COc1cc2c(cc1OC)[C@@H](C)N1CCc3cc(OC)c(OC)cc3[C@@H]1C2 [DC037002]
24 | 2480 | COc1cc2c(cc1OC)CN1CCc3cc(OC)c(OC)cc3[C@@H]1C2 [DC037003]
25 | 422 | COc1ccc2c(c1)CCN1Cc3cc(OC)c(OC)cc3C[C@@H]21 [DC037004]
26 | 2950 | COc1cc2c(cc1OC)[C@@H]1Cc3cc4c(cc3CN1CC2)OCO4 [DC037005]
27 | 75.8 | COc1ccc(OC)c2c1C[C@H]1c3cc4c(cc3CCN1C2)OCO4 [DC037007]
28 | 2120 | COc1cc2c(cc1OC)C1Cc3cc4c(cc3CN1CC2)OCO4 (stereo not shown) [DC037008]
